We go through 34 molecules from ChEMBL document CHEMBL5500367, “Improving tumor sensitivity by the introduction of an ester chain to triaryl derivatives targeting PD-1/PD-L1” (Eur J Med Chem, 2024).

Calls of active or inactive are those of the source. The rule behind the calls is not given here.

In general, IC50 refers to the concentration that gives 50% inhibition. The inhibition is the change of the read-out against control, counted positive when it falls.

The target in data set [1] is Programmed cell death protein 1/Programmed cell death 1 ligand 1 (Homo sapiens, UniProt Q9NZQ7). Nature of the data set: Inhibition of PD-1/PD-L1 (unknown origin) interaction incubated for 15 mins by HTRF assay. Format: protein-complex assay. (In general: In TR-FRET formats the signal depends on donor and acceptor labels being close together.)
Chain of Programmed cell death protein 1/Programmed cell death 1 ligand 1 (Q15116 whole entry): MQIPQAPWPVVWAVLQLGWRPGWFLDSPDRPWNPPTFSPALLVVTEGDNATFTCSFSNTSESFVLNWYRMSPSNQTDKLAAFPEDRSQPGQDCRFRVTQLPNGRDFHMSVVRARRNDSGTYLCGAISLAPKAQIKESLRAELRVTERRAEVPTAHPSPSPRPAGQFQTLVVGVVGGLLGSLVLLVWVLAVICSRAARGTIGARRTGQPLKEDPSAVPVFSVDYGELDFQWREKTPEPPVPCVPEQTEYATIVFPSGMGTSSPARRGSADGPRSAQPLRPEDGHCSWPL
Chain of Programmed cell death protein 1/Programmed cell death 1 ligand 1 (Q9NZQ7 whole entry): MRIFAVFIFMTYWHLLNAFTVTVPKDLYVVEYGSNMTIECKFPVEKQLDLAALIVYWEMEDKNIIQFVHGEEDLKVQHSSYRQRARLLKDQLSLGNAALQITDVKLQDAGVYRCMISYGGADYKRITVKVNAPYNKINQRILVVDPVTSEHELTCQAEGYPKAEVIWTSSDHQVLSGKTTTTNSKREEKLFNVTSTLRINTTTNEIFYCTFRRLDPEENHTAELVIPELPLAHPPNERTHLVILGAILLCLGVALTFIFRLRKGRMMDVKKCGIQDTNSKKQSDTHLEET
Data set [2] can be described thus: Cytotoxicity against human PBMC cells assessed as decrease in cell viability at 2.5 to 10 uM incubated for 48 hrs by MTT assay. Format: toxicity, cell-based. Particulars: dose 2.5-10 µM. (Formazan colour is commonly taken as a measure of viable cells.)
The test system of data set [3] is A549. Description: Cytotoxicity against human A549 cells assessed as decrease in cell viability at 2.5 to 10 uM incubated for 48 hrs by MTT assay. The data set is classed as functional, cell-based. Particulars: dose 2.5-10 µM.
In a further data set the test system is NCI-H1299. Nature of the data set: Cytotoxicity against human NCI-H1299 cells assessed as inhibition of cell viability incubated for 72 hrs by MTT assay. The data set is classed as functional, cell-based. The conditions noted are these: NCI-H1299, 72 h.
For data set [4], the target named is Programmed cell death 1 ligand 1 (Homo sapiens, UniProt Q9NZQ7).
Chain of Programmed cell death 1 ligand 1 (Q9NZQ7 whole entry): as above
Description: Binding affinity to CM5 chip immobilized recombinant human PD-L1 assessed as association constant by SPR analysis
In another data set the test system is HCT-116. Nature of the data set: Cytotoxicity against human HCT-116 cells assessed as inhibition of cell viability incubated for 72 hrs by MTT assay. The data set is classed as functional, cell-based. Particulars: HCT-116, 72 h.
A further data set deals with MDA-MB-231. Description: Cytotoxicity against human MDA-MB-231 cells assessed as inhibition of cell viability incubated for 72 hrs by MTT assay. Format: functional, cell-based. Particulars: MDA-MB-231, 72 h.
The test system of data set [5] is A549. Nature of the data set: Cytotoxicity against human A549 cells assessed as inhibition of cell viability incubated for 72 hrs by MTT assay. Particulars: A549, 72 h. Format: functional, cell-based.
A short description of data set [6]: Toxicity in BALB/c mouse allografted with mouse 4T1 cells assessed as body weight loss at 10 to 20 mg/kg, ip treated for 21 days consecutively. The data set is classed as organism-based. The conditions noted are these: in vivo, 504 h, dose 10-20 mg/kg, time 21 day.
Data set [7] relates to 4T1. Nature of the data set: Antitumor activity against mouse 4T1 cells allografted in BALB/c mouse at 10 mg/kg, ip treated for 21 days consecutively relative to control. Format: functional. Particulars: 4T1, 504 h, time 21 day, read-out: TGI.
Data set [8] can be described thus: Metabolic stability in human liver microsomes assessed as half life by LC-MS/MS analysis. Format: ADME, Microsome. Background: Liver microsomes are vesicles of endoplasmic reticulum, rich in cytochrome P450 enzymes.
For data set [9], the system named is 4T1. Description: Antitumor activity against mouse 4T1 cells allografted in BALB/c mouse at 20 mg/kg, ip treated for 21 days consecutively relative to control. Format: functional. Particulars: 4T1, 504 h, time 21 day, read-out: TGI.
The nature of data set [10]: Metabolic stability in human liver microsomes assessed as intrinsic clearance by LC-MS/MS analysis. The data set is classed as ADME, Microsome.
A short description of data set [11]: Toxicity in BALB/c mouse allografted with mouse 4T1 cells assessed as drug tolerance at 10 to 20 mg/kg, ip treated for 21 days consecutively. Particulars: in vivo, 504 h, dose 10-20 mg/kg, time 21 day. The data set is classed as organism-based.
Data set [12] has as its system 4T1. Nature of the data set: Antitumor activity against mouse 4T1 cells allografted in BALB/c mouse assessed as increase in CD8+ cell infiltration administered intraperitoneally treated for 21 days consecutively by IHC analysis. Format: functional, cell-based. The conditions noted are these: dose 10-20 mg/kg, route ip, time 21.0 day.
Data set [13] relates to A549. Description: Cytotoxicity against human A549 cells assessed as inhibition of cell viability at 10 uM preincubated with A549 cells for 2 hrs followed by co-culture with CD3/CD28/CD2-activated PBMC cells for 48 hrs by MTT assay relative to control. The data set is classed as functional. Particulars: time 50 hrs.
Data set [14] is described as follows: Toxicity in BALB/c mouse allografted with mouse 4T1 cells assessed as animal death at 10 to 20 mg/kg, ip treated for 21 days consecutively. The data set is classed as organism-based. The conditions noted are these: in vivo, 504 h, dose 10-20 mg/kg, time 21 day.

For the molecule `COc1cc(OC(=O)c2cccc(-c3ccccc3)c2C)ccc1CN1C[C@H](O)C[C@H]1C(=O)O`, the IC50 in data set [1] turned out to be 113 nM.
As to `COc1cc(OC(=O)c2cccc(-c3ccccc3)c2C)ccc1CNCCCO`, the IC50 in [1] is over 1000 nM.
On to `Cc1c(COc2cc(OCc3cccc(C#N)c3)c(CN3C[C@H](O)C[C@@H]3C(=O)O)cc2Cl)cccc1-c1ccc2c(c1)OCCO2`, for which the Activity entry in data set [2] was “Non-Toxic”. In addition, the outcome in the data set on A549 [3] was inactive.
The molecule `Cc1c(C(=O)Oc2ccc(CN[C@H](CO)C(=O)O)c(OCc3cccc(C#N)c3)c2)cccc1-c1ccccc1` showed an IC50 in data set [1] of 24 nM.
On the same count and under the same terms, then `COc1cc(OC(=O)c2cccc(-c3ccccc3)c2C)ccc1CN1CCC(O)CC1`, with 78.6 nM.
In the case of `Cc1c(C(=O)Oc2ccc(CNC(CO)(CO)CO)c(Br)c2)cccc1-c1ccccc1`, the IC50 in the data set with NCI-H1299 is 18700 nM; in the data set with HCT-116, over 20000 nM; in data set [1] it was 2.62 nM; in the data set on MDA-MB-231 it was over 20000 nM; in the data set with A549 [5], over 20000 nM. Also, in data set [4], the Ka was 1.16 10^5/M/s. The Activity entry in data set [2] was “Non-Toxic”. Besides, in the data set on A549 [3], the outcome was inactive.
In data set [1], `COc1cc(OC(=O)c2cccc(-c3ccccc3)c2C)ccc1CNCCNC(C)=O` had a 50% inhibitory concentration (IC50) of 893 nM.
Molecule `COc1cc(OC(=O)c2cccc(-c3ccccc3)c2C)ccc1CNC[C@@H](O)CO` returned an IC50 in data set [1] of 302 nM.
In the case of `COc1cc(OC(=O)c2cccc(-c3ccccc3)c2C)ccc1CNC(CO)CO`, the IC50 with NCI-H1299 is 11400 nM; in the data set with HCT-116 it was 12200 nM; in data set [1] it was 27.1 nM; in the data set with MDA-MB-231, over 20000 nM; with A549 [5], 18800 nM.
Consider `Cc1c(C(=O)Oc2ccc(CN[C@@H](CO)C(=O)O)c(OCc3cccc(C#N)c3)c2)cccc1-c1ccccc1`, for which the half-inhibitory concentration (IC50) in data set [1] is over 1000 nM.
Take `COc1cc(OC(=O)c2cccc(-c3ccccc3)c2C)ccc1CNCCO`: the IC50 in [1] turned out to be 263 nM.
In the case of `Cc1c(C(=O)Oc2ccc(CN3C[C@H](O)C[C@H]3C(=O)O)c(OCc3cccc(C#N)c3)c2)cccc1-c1ccccc1`, the IC50 is over 20000 nM in the data set on NCI-H1299; over 20000 nM in the data set with HCT-116; 1.21 nM in data set [1]; over 20000 nM in the data set with MDA-MB-231; over 20000 nM in the data set on A549 [5]. Moreover, the Ka in data set [4] was 7.9 10^5/M/s. The Activity entry in [6] is “Non-Toxic”; in data set [2], “Non-Toxic”; in [11], “Non-Toxic”; in the data set on 4T1 [12] it was “Dose-Dependent Effect”; in data set [14], “Non-Toxic”. Further, the inhibition in vivo at 10 mg/kg in the data set on 4T1 [7] was found to be 49.4%. Also, the t1/2 in [8] worked out at 18.8 min. Besides, the inhibition in vivo at 20 mg/kg in the data set with 4T1 [9] was determined as 67.8%. The CLH in [10] is 100 µL/min/mg. Moreover, the inhibition at 10 µM in the data set on A549 [13] worked out at 76.5%. The result in the data set on A549 [3] was inactive.
Regarding `COc1cc(OC(=O)c2cccc(-c3ccccc3)c2C)cc(OC)c1CNCC(O)CO` (configuration not stated), the IC50 in [1] was 228 nM.
In the case of `Cc1c(C(=O)Oc2ccc(CN[C@@H](CO)C(=O)O)cc2)cccc1-c1ccccc1`, the IC50 in the data set with NCI-H1299 is over 20000 nM; with HCT-116 it was over 20000 nM; in data set [1], 17.5 nM; in the data set on MDA-MB-231, over 20000 nM; in the data set on A549 [5], over 20000 nM. Also, the Activity result in [2] was “Non-Toxic”. Moreover, the outcome in the data set on A549 [3] was inactive.
Molecule `Cc1cc(OC(=O)c2cccc(-c3ccccc3)c2C)cc(OCc2cccc(C#N)c2)c1CN[C@H](CO)C(=O)O` returned an IC50 in data set [1] of 39.5 nM.
On the same count and under the same terms, with `COc1cc(OC(=O)c2cccc(-c3ccccc3)c2C)ccc1CNCCN(C)C` the figure was 358 nM; with `Cc1c(C(=O)Oc2ccc(CN[C@@H](CO)C(=O)O)c(OCc3cccc(C#N)c3)c2C)cccc1-c1ccccc1`, 231 nM.
For `Cc1c(C(=O)Oc2ccc(CN[C@H](CO)C(=O)O)cc2)cccc1-c1ccccc1`, in data set [1], half-maximal inhibition (IC50) was put at 55.1 nM.
For `Cc1cc(OC(=O)c2cccc(-c3ccccc3)c2C)ccc1CNC(CO)(CO)CO`, the IC50 is 16500 nM in the data set on NCI-H1299; 12200 nM in the data set with HCT-116; 1.98 nM in [1]; 18300 nM in the data set on MDA-MB-231; 18600 nM in the data set on A549 [5]. The Ka in [4] was 4.37 10^5/M/s.
`COc1cc(OC(=O)c2cccc(-c3ccccc3)c2C)ccc1CNC(CO)(CO)CO` returned an IC50 in data set [1] of 72.4 nM.
`Cc1c(C(=O)Oc2ccc(CNC(CO)(CO)CO)c(OCc3cccc(C#N)c3)c2C)cccc1-c1ccccc1` had an IC50 in data set [1] of 109 nM.
In data set [1], `COc1cc(OC(=O)c2cccc(-c3ccccc3)c2C)ccc1CNC[C@H](O)CO` registered an IC50 of 381 nM.
Still for that read-out and setting: then `Cc1cc(OC(=O)c2cccc(-c3ccccc3)c2C)cc(OCc2cccc(C#N)c2)c1CNCCO`, with 271 nM; and `Cc1cc(OC(=O)c2cccc(-c3ccccc3)c2C)cc(OCc2cccc(C#N)c2)c1CNC(CO)(CO)CO`, with 133 nM.
As to `COc1cc(OC(=O)c2cccc(-c3ccccc3)c2C)ccc1CN1CCCC[C@H]1C(=O)O`, the IC50 in [1] is over 1000 nM.
The molecule `Cc1cc(OC(=O)c2cccc(-c3ccccc3)c2C)cc(OCc2cccc(C#N)c2)c1CNC[C@H](O)CO` registered an IC50 in data set [1] of 254 nM.
Take `Cc1c(C(=O)Oc2ccc(CNCCO)c(OCc3cccc(C#N)c3)c2)cccc1-c1ccccc1`: the IC50 in the data set with NCI-H1299 was 7400 nM; in the data set with HCT-116 it was 7350 nM; in data set [1], 13.2 nM; in the data set on MDA-MB-231 it was 7680 nM; in the data set on A549 [5], 12600 nM. The Activity result in [2] is “Non-Toxic”. The result in the data set on A549 [3] was inactive.
`Cc1c(C(=O)Oc2ccc(CNC(CO)(CO)CO)cc2)cccc1-c1ccccc1` registered an IC50 in data set [1] of 25.6 nM.
`COc1cc(OC(=O)c2cccc(-c3ccccc3)c2C)ccc1CN[C@@H](CO)C(=O)O`: the IC50 in the data set on NCI-H1299 is over 20000 nM; with HCT-116 it was over 20000 nM; in data set [1], 27.3 nM; in the data set with MDA-MB-231 it was over 20000 nM; in the data set with A549 [5], over 20000 nM. Further, in data set [2], the Activity entry is “Non-Toxic”. In addition, in the data set on A549 [3], the result was inactive.
Molecule `Cc1cc(OC(=O)c2cccc(-c3ccccc3)c2C)cc(OCc2cccc(C#N)c2)c1CN[C@@H](CO)C(=O)O` showed an IC50 in [1] of 64.3 nM.
Regarding `Cc1cc(OC(=O)c2cccc(-c3ccccc3)c2C)ccc1CN[C@@H](CO)C(=O)O`, the IC50 in the data set with NCI-H1299 is over 20000 nM; in the data set on HCT-116 it was over 20000 nM; in data set [1], 2.25 nM; with MDA-MB-231 it was over 20000 nM; with A549 [5], over 20000 nM. Moreover, the Ka in [4] was 5.31 10^5/M/s. The Activity result in [2] is “Non-Toxic”. Also, in the data set on A549 [3], the result was inactive.
In turn, `Cc1c(C(=O)Oc2cc(OCc3cccc(C#N)c3)c(CNC(CO)CO)cc2Cl)cccc1-c1ccccc1` registered an IC50 in data set [1] of 118 nM.
Turning to `COc1cc(OCc2cccc(-c3ccccc3)c2C)cc(OC)c1CN1CCCC[C@H]1C(=O)O`, in [4], the Ka was 1.17 10^5/M/s. Also, the t1/2 in [8] is 14.2 min. Besides, in data set [2], the Activity entry is given as “Non-Toxic”. In addition, the inhibition in vivo at 20 mg/kg in the data set with 4T1 [9] was determined as 33.1%. Moreover, the CLH in data set [10] is 216 µL/min/mg. In the data set with A549 [3], the result was inactive.
In data set [1], `CC(=O)NCCNCc1ccc(OC(=O)c2cccc(-c3ccccc3)c2C)cc1OCc1cccc(C#N)c1` showed an IC50 of 506 nM.
